Source: the supplement of paper PMC11208160

Assay: recombinant UMI read abundance after kanamycin selection (control-corrected) (log10(CPM+1)); higher = more efficient recombination; extreme values may be limits of the assay; sequences stand for … in AGTGCAGAGAAAATCGGCCAGTTTTCTCTGCCTGCAGTCCGCATGCCGTGGGACCCCTTGGGTTCTAACCTGTTGCCTAGATTTATGCAGCGGACTGCCTTTCTCCCAAAGTGATAAACCGG…AGGTTGGTTTCACT; site = the 11-nt donor
Summary of the method: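 Values are reported as log10(CPM+1), obtained by converting sequencing counts to CPM, averaging replicates and scaling by control-derived factors. The counts came from recombinant UMIs amplified by PCR across the donor–target junction. These UMIs came from a pooled Escherichia coli screen of donor and donor-binding-loop pairs for the IS621 bridge recombinase, plated with IPTG (0.07 mM) plus kanamycin or left unselected, in two replicates each.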
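Note: IS621 bridge recombinase in Escherichia coli cells against a fixed T5 target plasmid.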

GAATGGCCATGGACCGGTTTTCCCGGTAATCCGTATTTGGA (site GAATGGCCTTC)
recombinant UMI read abundance (log10): 0.00798

GAATGGCCATGGACCGGTTTTCCCGGTAATCCGTATTTGGA (site GAATGGCCTTG)
recombinant UMI read abundance (log10): 0

GAATGGCCATGGACCGGTTTTCCCGGTAATCCGTATTTGGA (site GAATGGCCTTT)
recombinant UMI read abundance (log10): 0.0129

GAATGGCCATGGACCGGTTTTCCCGGTAATCCGTATTTGTA (site GAATGGCCTTA)
recombinant UMI read abundance (log10): 0.142

GAATGGCCATGGACCGGTTTTCCCGGTAATCCGTATTTGTA (site GAATGGCCTTC)
recombinant UMI read abundance (log10): 0.0097

GAATGGCCATGGACCGGTTTTCCCGGTAATCCGTATTTGTA (site GAATGGCCTTG)
recombinant UMI read abundance (log10): 0.00609

GAATGGCCATGGACCGGTTTTCCCGGTAATCCGTATTTGTA (site GAATGGCCTTT)
recombinant UMI read abundance (log10): 0.0207

GACAAACCATGGACCGGTTTTCCCGGTAATCCGTATTTGCT (site GACAAACCTAA)
recombinant UMI read abundance (log10): 0.00711

GACAAACCATGGACCGGTTTTCCCGGTAATCCGTATTTGCT (site GACAAACCTAC)
recombinant UMI read abundance (log10): 0

GACAAACCATGGACCGGTTTTCCCGGTAATCCGTATTTGCT (site GACAAACCTAG)
recombinant UMI read abundance (log10): 0

GACAAACCATGGACCGGTTTTCCCGGTAATCCGTATTTGCT (site GACAAACCTAT)
recombinant UMI read abundance (log10): 0

GACAAACCATGGACCGGTTTTCCCGGTAATCCGTATTTGGA (site GACAAACCTAC)
recombinant UMI read abundance (log10): 0.0269

GACAAACCATGGACCGGTTTTCCCGGTAATCCGTATTTGGA (site GACAAACCTCC)
recombinant UMI read abundance (log10): 0

GACAAACCATGGACCGGTTTTCCCGGTAATCCGTATTTGGA (site GACAAACCTGC)
recombinant UMI read abundance (log10): 0

GACAAACCATGGACCGGTTTTCCCGGTAATCCGTATTTGGA (site GACAAACCTTC)
recombinant UMI read abundance (log10): 0

GACAAACCATGGACCGGTTTTCCCGGTAATCCGTATTTGTT (site GACAAACCTAA)
recombinant UMI read abundance (log10): 0

GACAAACCATGGACCGGTTTTCCCGGTAATCCGTATTTGTT (site GACAAACCTAC)
recombinant UMI read abundance (log10): 0

GACAAACCATGGACCGGTTTTCCCGGTAATCCGTATTTGTT (site GACAAACCTAG)
recombinant UMI read abundance (log10): 0

GACAAACCATGGACCGGTTTTCCCGGTAATCCGTATTTGTT (site GACAAACCTAT)
recombinant UMI read abundance (log10): 0

GACACACCATGGACCGGTTTTCCCGGTAATCCGTATTTGGT (site GACAAACCTAC)
recombinant UMI read abundance (log10): 0

GACACACCATGGACCGGTTTTCCCGGTAATCCGTATTTGGT (site GACACACCTAC)
recombinant UMI read abundance (log10): 0.00264

GACACACCATGGACCGGTTTTCCCGGTAATCCGTATTTGGT (site GACAGACCTAC)
recombinant UMI read abundance (log10): 0.00253

GACACACCATGGACCGGTTTTCCCGGTAATCCGTATTTGGT (site GACATACCTAC)
recombinant UMI read abundance (log10): 0.00315

GACCACCCATGGACCGGTTTTCCCGGTAATCCGTATTTGTT (site GACCACCCTAA)
recombinant UMI read abundance (log10): 0.0158

GACCACCCATGGACCGGTTTTCCCGGTAATCCGTATTTGTT (site GCCCACCCTAA)
recombinant UMI read abundance (log10): 0.0164

GACCACCCATGGACCGGTTTTCCCGGTAATCCGTATTTGTT (site GGCCACCCTAA)
recombinant UMI read abundance (log10): 0.00672

GACCACCCATGGACCGGTTTTCCCGGTAATCCGTATTTGTT (site GTCCACCCTAA)
recombinant UMI read abundance (log10): 0.0482

GACCCATCATGGACCGGTTTTCCCGGTAATCCGTATTTGCC (site GACCCATCTGG)
recombinant UMI read abundance (log10): 1.64

GACCCGACATGGACCGGTTTTCCCGGTAATCCGTATTTGGT (site GACCCGACTAC)
recombinant UMI read abundance (log10): 0.319
